Assay results: US8124626B2, “Methods of treating inflammations and infections with pyridinium salts” (Mycosol, Inc., priority 2007, dated 2012)

Columns and labels:
Trichophyton equinium = conditions: Mueller-Hinton agar, 24 hours at 35° C.
E. coli = conditions: Mueller-Hinton agar, 24 hours at 35° C.
Candida tropicalis = conditions: Mueller-Hinton agar, 24 hours at 35° C.
Pasturella multocida = conditions: Mueller-Hinton agar, 24 hours at 35° C.
Microsporidium gypseum = conditions: Mueller-Hinton agar, 24 hours at 35° C.
Bordella bronchiseptica = conditions: Mueller-Hinton agar, 24 hours at 35° C.
Fusarium solani = conditions: Mueller-Hinton agar, 24 hours at 35° C.
Aspergillus flavus = conditions: Mueller-Hinton agar, 24 hours at 35° C.
Candida albicans = conditions: Mueller-Hinton agar, 24 hours at 35° C.
Epidermophyton floccsum = conditions: Mueller-Hinton agar, 24 hours at 35° C.
Rhizopus arrihizus = conditions: Mueller-Hinton agar, 24 hours at 35° C.
Streptococcus pyogenes = conditions: Mueller-Hinton agar, 24 hours at 35° C.
Trichophyton rubrum = conditions: Mueller-Hinton agar, 24 hours at 35° C.
Pseudomonas aerugenosa = conditions: Mueller-Hinton agar, 24 hours at 35° C.
Cryptococcus neoformans = conditions: Mueller-Hinton agar, 24 hours at 35° C.
Aspergillus fumigatus = conditions: Mueller-Hinton agar, 24 hours at 35° C.
Microsporidium canis = conditions: Mueller-Hinton agar, 24 hours at 35° C.
[1] = system: Trichophyton mentagrophyt; conditions: Mueller-Hinton agar, 24 hours at 35° C.
Streptococcus faecalis = conditions: Mueller-Hinton agar, 24 hours at 35° C.
Vibrio cholerae = conditions: Mueller-Hinton agar, 24 hours at 35° C.
Saccharomyces cervisciae = conditions: Mueller-Hinton agar, 24 hours at 35° C.
[2] = as compared to the iodide salt
Staphylococcus aureus = conditions: Mueller-Hinton agar, 24 hours at 35° C.
Streptococcus algalactia = conditions: Mueller-Hinton agar, 24 hours at 35° C.
[3] = system: roundworms, threadworms, and whipworms; conditions: reported; U.S. Pat. No. 3,075,975 and 3,085,935; cited from earlier work
Septonia tritici = assay: Plant relevant mold panel, microtiter growth inhibition; type: cell-based; conditions: Plant relevance: Wheat Leaf; 18° C. for 7 days, optical density 405 nm
Botrytis cinerea = assay: as above; type: cell-based; conditions: Plant relevance: Vegetable; 18° C. for 7 days, optical density 405 nm
Pyrenophora teres = assay: as above; type: cell-based; conditions: Plant relevance: Barley; 18° C. for 7 days, optical density 405 nm
[4] = system: Colletotrichum lagenarium; assay: as above; type: cell-based; conditions: Plant relevance: Mellons; 18° C. for 7 days, optical density 405 nm
Rhizoctonia solani = assay: as above; type: cell-based; conditions: Plant relevance: Rice Sheath; 18° C. for 7 days, optical density 405 nm
Phytophthora infestans = conditions: Plant relevance: Tomato; 18° C. for 7 days, optical density 405 nm
Pyricularia oryzae = conditions: Plant relevance: Rice; 18° C. for 7 days, optical density 405 nm

## 1-Ethyl-(E,E)-2,6-bis[2-[4-(pyrrolidinyl)phenyl]ethenyl]pyridinium Chloride [formula I]
Trichophyton equinium
  MIC: 1.6 µg/mL
E. coli
  MIC: >100 µg/mL
Candida tropicalis
  MIC: <0.4 µg/mL
Pasturella multocida
  MIC: 3.0 µg/mL
Microsporidium gypseum
  MIC: 1.6 µg/mL
Bordella bronchiseptica
  MIC: 1.0 µg/mL
Fusarium solani
  MIC: <0.4 µg/mL
Aspergillus flavus
  MIC: 6.25 µg/mL
Candida albicans
  MIC: <6 ng/mL
Epidermophyton floccsum
  MIC: 1.6 µg/mL
Rhizopus arrihizus
  MIC: 6.25 µg/mL
Streptococcus pyogenes
  MIC: 1.0 µg/mL
Trichophyton rubrum
  MIC: 1.6 µg/mL
Pseudomonas aerugenosa
  MIC: >100 µg/mL
Cryptococcus neoformans
  MIC: <0.4 µg/mL
Aspergillus fumigatus
  MIC: <6 ng/mL
Microsporidium canis
  MIC: 1.6 µg/mL
[1]
  MIC: 1.6 µg/mL
Streptococcus faecalis
  MIC: 1.0 µg/mL
Vibrio cholerae
  MIC: 10.0 µg/mL
Saccharomyces cervisciae
  MIC: <0.4 µg/mL
[2]
  stability: increased stability
Staphylococcus aureus
  MIC: 0.3 µg/mL
Streptococcus algalactia
  MIC: 1.0 µg/mL

## CC[n+]1c(/C=C/c2ccc(N3CCCC3)cc2)cccc1/C=C/c1ccc(N2CCCC2)cc1.[I-] [Stilbazium iodide]
[3]
  anthelmintic effectiveness: effective against roundworms, threadworms, and whipworms
Septonia tritici
  IC90: 2 ppm a.i.
Botrytis cinerea
  IC90: 0.5 ppm a.i.
Pyrenophora teres
  IC90: 31 ppm a.i.
[4]
  IC90: 31 ppm a.i.
Rhizoctonia solani
  IC90: 2 ppm a.i.
Phytophthora infestans
  IC90: 2 ppm a.i.
Pyricularia oryzae
  IC90: 8 ppm a.i.
